“And” between values parts separate entries of the source, which are not always exact repeats. Equal values may be shown once.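 Assay format: 96-well plates, 48-hour exposure. GI50 is the concentration that inhibits growth by half. TGI marks complete inhibition of growth.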
How the values were obtained:
Assay in all cases: NCI tumour cell line growth inhibition, 48 h
A498 renal = test system: A498 renal
ACHN renal = test system: ACHN renal
HL-60(TB) leukemia = test system: HL-60(TB) leukemia
KM12 colon = test system: KM12 colon
M14 melanoma = test system: M14 melanoma
RPMI-8226 leukemia = test system: RPMI-8226 leukemia
RXF 393 renal = test system: RXF 393 renal
SF-539 CNS = test system: SF-539 CNS
SK-MEL-5 melanoma = test system: SK-MEL-5 melanoma
OVCAR-5 ovarian = test system: OVCAR-5 ovarian

Structure (SMILES) | TGI (A498 renal) [µM] | TGI (ACHN renal) | TGI (HL-60(TB) leukemia) | TGI (KM12 colon) | TGI (M14 melanoma) | TGI (RPMI-8226 leukemia) [µM] | TGI (RXF 393 renal) [µM] | TGI (SF-539 CNS) [µM] | TGI (SK-MEL-5 melanoma) | TGI (OVCAR-5 ovarian) | GI50 (ACHN renal) | GI50 (HL-60(TB) leukemia) | GI50 (KM12 colon) | GI50 (M14 melanoma) | GI50 (OVCAR-5 ovarian) | GI50 (RPMI-8226 leukemia) | GI50 (SF-539 CNS) [µM] | GI50 (SK-MEL-5 melanoma) | GI50 (A498 renal) [µM]
O=C(NCCCCCCCCCCCCNC(=O)c1cnc2ccccc2n1)c1cnc2ccccc2n1 | > 100 | > 100 µM | > 100 µM | > 100 µM | > 100 µM | > 100 | 88.6 | 36.8 | > 100 µM |  |  |  |  |  |  |  |  |  | 
O/N=C1/CCC/C1=C\c1ccccc1 |  | > 100 µM | > 100 µM | > 100 µM | > 100 µM | > 100 | > 100 | > 100 | > 100 µM | > 100 µM |  |  |  |  |  |  |  |  | 
CC(=O)Nc1ccccc1-c1nc2ccccc2nc1-c1ccccc1 | > 100 | > 100 µM | > 100 µM | > 100 µM | > 100 µM | > 100 | > 100 | > 100 |  |  |  |  |  |  |  |  |  |  | 
CCCCCC/C=C/C#CCCCCCCCC(=O)O | > 100 | > 100 µM | > 100 µM | > 100 µM | > 100 µM | > 100 |  | > 100 | > 100 µM | > 100 µM |  |  |  |  |  |  |  |  | 
CC(Oc1cc2oc(=O)cc(-c3ccccc3)c2cc1Cl)C(=O)O (stereo not drawn) | > 100 | > 100 µM | > 100 µM | > 100 µM | > 100 µM |  | > 100 | > 100 | > 100 µM |  |  |  |  |  |  |  |  |  | 
O=C(CCc1nc(=S)[nH][nH]1)Nc1cc(Cl)ccc1Cl | > 100 | > 100 µM | > 100 µM | > 100 µM | > 100 µM | > 100 |  | > 100 | > 100 µM | > 100 µM |  |  |  |  |  |  |  |  | 
NC(CCSCC(F)(F)F)C(=O)O (stereo not drawn) | > 100 | > 100 µM | > 100 µM | > 100 µM | > 100 µM |  | > 100 | > 100 | > 100 µM | > 100 µM |  |  |  |  |  |  |  |  | 
Cc1ccc2c(c1)[n+](=O)c(C(=O)c1cccs1)c(C(F)(F)F)n2[O-] |  | 6.47 µM and 4.68 µM | 33.7 µM and 57.3 µM | 3.79 µM and 16.3 µM | 50 µM and 26.2 µM |  |  | 2.36 | 1.57 µM and 0.423 µM | 7.48 µM and 12.9 µM | 1.25 µM and 0.541 µM | 1.5 µM and 0.713 µM | 0.849 µM and 1.4 µM | 2.99 µM and 4.32 µM | 1.58 µM and 1.57 µM | 1.54 µM and 0.356 µM | 0.997 | 0.648 µM and 0.177 µM | 
COc1cccc(/C=N/[N-]C(=O)c2ccncc2)c1[O-].[Mn+2].[OH3+] | 94.3 | 47.8 µM | 4.19 µM | > 100 µM | 52.4 µM | > 100 |  | 8.97 | 30.3 µM | 88.9 µM | 3.75 µM | 1.45 µM | 8.31 µM | 7.96 µM | 37 µM | 6 µM | 2.51 | 12.3 µM | 27.4
O=C1OC(CC(=O)c2ccc(F)cc2)C(Cl)=C1Cl (stereo not drawn) |  | > 100 µM | 62 µM | 33 µM | 56.6 µM | > 100 | 37.5 | 35.2 | 60.4 µM | 44.9 µM |  |  |  |  |  |  |  |  | 

Source: PubChem BioAssay (NCI)
